Where “and” joins values, the source holds several entries; their conditions need not be identical. Equal values may be shown once.
Tested on: KRAS PDC multicell spheroid viability
Assay: Anticancer human tumor 825966-067-R-J1-PDC patient-derived colon carcinoma cell line growth inhibition [KRAS2]
Conditions: for viability, T/C: stronger effect = lower value
Procedure, shortened: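 KRAS-mutant tumor cells were grown as spheroids with HUVEC endothelial cells and human MSCs as stroma. Targeted agents were tested alone and with KRAS pathway inhibitors. Doses started at or near clinical Cmax, or 10 microM, descending half-log.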

[1] = curve of first compound, second compound 0.0316 µM
[2] = curve of first compound, second compound 0.1 µM
[3] = curve of first compound, second compound 0.316 µM
[4] = curve of first compound, second compound 1 µM
[5] = curve of first compound, second compound 3.16 µM
[6] = second compound 0.0316 µM, first compound 0.0316 µM
[7] = second compound 0.0316 µM, first compound 0.1 µM
[8] = second compound 0.0316 µM, first compound 0.316 µM
[9] = second compound 0.0316 µM, first compound 1 µM
[10] = second compound 0.0316 µM, first compound 3.16 µM
[11] = second compound 0.0316 µM, first compound 10 µM
[12] = second compound 0.1 µM, first compound 0.0316 µM
[13] = second compound 0.1 µM, first compound 0.1 µM
[14] = second compound 0.1 µM, first compound 0.316 µM
[15] = second compound 0.1 µM, first compound 1 µM
[16] = second compound 0.1 µM, first compound 3.16 µM
[17] = second compound 0.1 µM, first compound 10 µM
[18] = second compound 0.316 µM, first compound 0.0316 µM
[19] = second compound 0.316 µM, first compound 0.1 µM
[20] = second compound 0.316 µM, first compound 0.316 µM
[21] = second compound 0.316 µM, first compound 1 µM
[22] = second compound 0.316 µM, first compound 3.16 µM
[23] = second compound 0.316 µM, first compound 10 µM
[24] = second compound 1 µM, first compound 0.0316 µM
[25] = second compound 1 µM, first compound 0.1 µM
[26] = second compound 1 µM, first compound 0.316 µM
[27] = second compound 1 µM, first compound 1 µM
[28] = second compound 1 µM, first compound 3.16 µM
[29] = second compound 1 µM, first compound 10 µM
[30] = second compound 3.16 µM, first compound 0.0316 µM
[31] = second compound 3.16 µM, first compound 0.1 µM
[32] = second compound 3.16 µM, first compound 0.316 µM
[33] = second compound 3.16 µM, first compound 1 µM
[34] = second compound 3.16 µM, first compound 3.16 µM
[35] = second compound 3.16 µM, first compound 10 µM
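Further: spheroids exposed to compounds for 7 days.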
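Wherever viability, T/C is given: 100% = DMSO vehicle control viability.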

SMILES | IC50 [1] [nM] | IC50 [2] [nM] | IC50 [3] [nM] | IC50 [4] [nM] | IC50 [5] [nM] | viability, T/C [6] [%] | viability, T/C [7] [%] | viability, T/C [8] [%] | viability, T/C [9] [%] | viability, T/C [10] [%] | viability, T/C [11] [%] | viability, T/C [12] [%] | viability, T/C [13] [%] | viability, T/C [14] [%] | viability, T/C [15] [%] | viability, T/C [16] [%] | viability, T/C [17] [%] | viability, T/C [18] [%] | viability, T/C [19] [%] | viability, T/C [20] [%] | also measured
COc1cc2nccc(Oc3ccc(NC(=O)C4(C(=O)Nc5ccc(F)cc5)CC4)cc3)c2cc1OC + C=CC(=O)N1CCN(c2nc(OCC3CCCN3C)nc3c2CCN(c2cccc4cccc(C)c24)C3)CC1CC#N | 1640 | 1800 | 1660 | 1590 | 688 | 96.4 | 106 | 84 | 83.1 | 4.36 | 8.53 | 117 | 97.3 | 74.1 | 86.3 | 15.3 | 7.78 | 122 | 91.6 | 107 | viability, T/C [21]: 79.7%; viability, T/C [22]: 12%; viability, T/C [23]: 7.79%; viability, T/C [24]: 103%; viability, T/C [25]: 78.7%; viability, T/C [26]: 78.1%; viability, T/C [27]: 81.3%; viability, T/C [28]: 3.62%; viability, T/C [29]: 2%; viability, T/C [30]: 86.1%; viability, T/C [31]: 83.6%; viability, T/C [32]: 108%; viability, T/C [33]: 29.5%; viability, T/C [34]: 0.34%; viability, T/C [35]: 0.17%
CC1(C)CCC(CN2CCN(c3ccc(C(=O)NS(=O)(=O)c4ccc(NCC5CCOCC5)c([N+](=O)[O-])c4)c(Oc4cnc5[nH]ccc5c4)c3)CC2)=C(c2ccc(Cl)cc2)C1 + C=CC(=O)N1CCN(c2nc(OCC3CCCN3C)nc3c2CCN(c2cccc4cccc(C)c24)C3)CC1CC#N | 1850 | 1790 | 1770 | 1810 | 347 | 104 | 96 | 84.3 | 93 | 12.6 | 0.73 | 96.7 | 72 | 98.6 | 96.3 | 9.74 | 5.69 | 93.8 | 88.8 | 87.9 | viability, T/C [21]: 93.4%; viability, T/C [22]: 8.01%; viability, T/C [23]: 5.23%; viability, T/C [24]: 98.6%; viability, T/C [25]: 103%; viability, T/C [26]: 100%; viability, T/C [27]: 104%; viability, T/C [28]: 1.8%; viability, T/C [29]: 0.52%; viability, T/C [30]: 89%; viability, T/C [31]: 78.2%; viability, T/C [32]: 54.7%; viability, T/C [33]: 10.2%; viability, T/C [34]: 0.3%; viability, T/C [35]: 2.95%
C=CC(=O)N1CCN(c2nc(OCC3CCCN3C)nc3c2CCN(c2cccc4cccc(C)c24)C3)CC1CC#N (centres undefined) |  |  |  |  |  |  |  |  |  |  |  |  |  |  |  |  |  |  |  |  | viability, T/C (compound 0.1 µM): 87.5% [middle of 17 runs]; IC50 (compound alone, run of 08/19/2021): > 3160 nM; IC50 (compound alone, run of 08/26/2021): > 3160 nM; IC50 (compound alone, run of 09/02/2021): > 3160 nM and 2390 nM

— PubChem BioAssay AID1963865 (Molecular Pharmacology Branch, DTP, NCI, 2024)
